Results: the NIST ThermoML archive (doi:10.1016/j.jct.2017.03.032)
Numbers after ± are expanded uncertainties.

Conditions: Liquid, Closed cell (Static) method

F/C=C/C(F)(F)F [trans-1,3,3,3-tetrafluoropropene]
Conditions | vapor or sublimation pressure [kPa]
280.15 K | 276.5 ± 20
285.18 K | 328.2 ± 20
290.12 K | 386 ± 20
295.11 K | 452.1 ± 20
300.15 K | 526.7 ± 20
305.15 K | 609.7 ± 20
310.34 K | 706.3 ± 20
315.18 K | 805 ± 20
320.1 K | 916.6 ± 20
325.17 K | 1043.5 ± 20
330.13 K | 1178.1 ± 20
